Drawing on ChEMBL document CHEMBL2375328, “Synthetic oligoureas of metaphenylenediamine mimic host defence peptides in their antimicrobial behaviour” (Bioorg Med Chem Lett, 2013), this text covers Activity and MIC for three molecules.

Data set [1] can be described thus: Destabilization of dimyristoyl phosphatidylethanolamine membrane. The format is physicochemical.
A short description of data set [2]: Induction of dimyristoyl phosphatidylethanolamine membrane lysis assessed as calcein leakage at 1 mM by spectrofluorometric analysis. The data set is classed as physicochemical. Particulars: 1000 µM.
Data set [3] can be described thus: Induction of dimyristoyl phosphatidylglycerol membrane lysis assessed as calcein leakage at 250 uM to 1 mM by spectrofluorometric analysis. The format is physicochemical.
Data set [4] can be described thus: Induction of dimyristoyl phosphatidylethanolamine membrane lysis assessed as calcein leakage at 250 to 500 uM by spectrofluorometric analysis. The format is physicochemical.
For data set [5], the system named is Escherichia coli. The experiment in a line: Antimicrobial activity against Escherichia coli. The data set is classed as functional.
Data set [6] can be described thus: Induction of dimyristoyl phosphatidylglycerol membrane lysis assessed as calcein leakage at 1 mM by spectrofluorometric analysis relative to control. Particulars: 1000 µM. The format is physicochemical.
Data set [7] in a line: Induction of dimyristoyl phosphatidylglycerol membrane lysis assessed as calcein leakage by spectrofluorometric analysis. The format is physicochemical.
Data set [8] deals with Staphylococcus aureus. The experiment in a line: Antimicrobial activity against Staphylococcus aureus. The format is functional.
The nature of data set [9]: Destabilization of dimyristoyl phosphatidylglycerol membrane. The format is physicochemical.
Data set [10] relates to Escherichia coli. Description: Antimicrobial activity against Escherichia coli up to 2 mM. The format is functional, organism-based.
Data set [11] deals with Staphylococcus aureus. The experiment in a line: Antimicrobial activity against Staphylococcus aureus up to 2 mM. The data set is classed as functional, organism-based.

Converted amounts (≈) assume the structure as drawn. The source made the active and inactive calls.

One may read the MIC as the smallest concentration in the dilution series that meets the test's criterion for growth inhibition. High values mean a less susceptible organism, low ones a more susceptible organism. Consider `CC(C)c1ccccc1N(C)C(=O)N(C)c1cccc(N(C)C(=O)N(C)c2cccc(N(C)C(=O)N(C)c3cccc(N(C)C(=O)N(C)c4ccccc4C(C)C)c3)c2)c1`, for which the Activity entry is “Active” in data set [1]; “Active” in data set [2]; “Active” in data set [3]; “Not Active” in data set [4]; 61% in data set [6]; “Dose-dependent effect” in data set [7]. For the same molecule, the MIC in the data set with Escherichia coli [5] and with Staphylococcus aureus [8] was 1000 µM (≈ 811 µg/mL) in each case.

As for `CC(C)c1ccccc1N(C)C(=O)N(C)c1cccc(N(C)C(=O)N(C)c2cccc(N(C)C(=O)N(C)c3cccc(N(C)C(=O)N(C)c4cccc(N(C)C(=O)N(C)c5cccc(N(C)C(=O)N(C)c6cccc(N(C)C(=O)N(C)c7ccccc7C(C)C)c6)c5)c4)c3)c2)c1`, the Activity result in data set [1] is on record as “Active”; in [2], “Active”; in data set [3], “Active”; in data set [4] it was “Not Active”; in data set [6] it was 69%; in data set [7], “Dose-dependent effect”. Also, the MIC against Escherichia coli [5] and with Staphylococcus aureus [8] was 1000 µM (≈ 1300 µg/mL) in each case.

For `CC(C)c1ccccc1N(C)C(=O)N(C)c1ccccc1C(C)C`, the Activity entry is “Active” in data set [9]; “Not Active” in data set [1]; “Active” in data set [2]; “Active” in data set [3]; “Not Active” in data set [4]; “Dose-dependent effect” in data set [7]. Besides, the result in the data set with Escherichia coli [10] and in the data set on Staphylococcus aureus [11] was inactive.
